Measurements as given in patent EP0855398B1, “SESQUITERPENE DERIVATIVES HAVING ANTIVIRAL ACTIVITY” (SHIONOGI & CO., LTD., priority 1995, dated 1997).
In brackets after ≈: the same amount, converted by molar mass. Like-named read-outs stand apart in the source and are kept apart here.

Legend:
[1] = test system: Influenza virus A/WSN/33 (H1N1); test: microbe, parasite or virus in culture; assay type: cell-based
MDBK cells = conditions: Cell: MDBK, no virus; concentration at which 50% of the cells are killed; 4320 min
influenza A and B = conditions: administered orally or intraperitoneally; cited from earlier work
[2] = Cytotoxicity for MDCK cells; assay type: cell-based; conditions: dog, Cell: MDCK, no virus
Experimental: As in the measurement of anti-viral activity, samples were added to the cells, and incubated with 50 µl of culture medium instead of the viral dilution. The results are expressed as CC50 which is defined as the concentration of the compound at which 50% of the cells are killed due to the toxicity of the compound.
MDCK cells (derived from dog kidney) were cultured on 12-well plates using E-MEM supplemented by 10% fetal bovine serum. To each well was added 250 µl each of a viral dilution prepared by 10-fold serial dilution with E-MEM, followed by incubation for one hour under 5% CO2 at 37 °C. After removal of the viral solution, one ml of E-MEM containing 0.8% agarose, 0.5% bovine serum albumin and 2 µg/ml trypsin, and an appropriately diluted test compound was added. The plate was inverted, and incubated for 3 days under 5% CO2 at 37 °C. The number of plaques formed was counted, and the IC50 value, which is the concentration of the compound at which the number of plaques decreases by 50% compared to that of control which lacks the test compound, was determined. As in the above section 2), CC50 values for MDCK cells were determined.

A/91/N796 (H3N2) = test: Anti-viral activities against subtypes of influenza A and B (plaque number); assay type: cell-based; conditions: Influenza A virus, 72 h
B/91N759 = test: as above; assay type: cell-based; conditions: Influenza B virus, 72 h
A/Osaka/5/70 (H3N2) = test: as above; assay type: cell-based; conditions: Influenza A virus, 72 h
A/Kumamoto/5/67 (H2N2) = test: microbe, parasite or virus in culture; assay type: cell-based; conditions: Influenza A virus, H2N2, MDCK, 72 h
A/WSN/33 (H1N1) = test: Anti-viral activities against subtypes of influenza A and B (plaque number); assay type: cell-based; conditions: Influenza A virus, 72 h
in vitro = conditions: bovine
[3] = viral strain: Influenza virus A/WSN/33 (H1N1), Cell: MDBK, […], 3 days
[4] = (4): A/91/N796 (H3N2), Cell: MDCK, number of plaques decreases by 50%, 3 days, read-out: IC50
[5] = (5): B/91N759, Cell: MDCK, number of plaques decreases by 50%, 3 days, read-out: IC50
[6] = (3): A/Osaka/5/70 (H3N2), Cell: MDCK, number of plaques decreases by 50%, 3 days, read-out: IC50
[7] = (1): A/WSN/33 (H1N1), Cell: MDCK, number of plaques decreases by 50%, 3 days, read-out: IC50
[8] = 72 h, viral strain: Influenza virus A/WSN/33 (H1N1), Cell: MDBK, […], 3 days, read-out: IC50

CC(=O)O[C@@H]1C(=O)C[C@@]23Oc4c(c(O)cc5c4CNC5=O)C[C@]2(C)[C@@H](C)CC[C@H]3C1(C)C [Compound (53a), (6aR, 7S, 9aS, 11S, 13aS)-11-acetoxy-2,3,6,6a, 7,8,9,9a, 10 11, 12, 13-dodecahydro-5-hydroxy-6a, 7, 10, 10-tetramethyl-3,12-dioxo-1H-benzo[8,8a][1]benzopyrano[2,3-e]isoindole]
IC50 [1, 3]: 40 to 80 ng/mL | CC50 (MDBK cells): >10 µg/mL

CCOC(=O)C=CC(=O)Nc1ccc(S(=O)(=O)O[C@H]2C[C@@]34Oc5c(c(O)cc6c5CNC6=O)C[C@]3(C)[C@@H](C)CC[C@H]4C(C)(C)[C@H]2O)cc1 [Compound (50f), (6aR, 7S, 9aS, 11R, 12S, 13aS)-12-[4-(3-ethoxycarbonyl-1-oxo-2-propenyl)amino] phenylsulfonyloxy-2,3,6,6a, 7,8,9,9a, 10, 11, 12, 13-dodecahydro-5, 11-dihydroxy-6a, 7, 10, 10-tetramethyl-3-oxo-1H-benzo[8,8a][1]benzopyrano[2,3-e]isoindole]
IC50 [1, 3]: 10 ng/mL (≈ 0.0146 µM) | CC50 (MDBK cells): 5 µg/mL (≈ 7.32 µM)

CC(=O)N[C@H]1[C@H]([C@H](O)[C@H](O)CO)OC(C(=O)O)=C[C@@H]1NC(=N)N [4-guanidino-Neu5Ac2en]
activity against influenza A and B (influenza A and B): has not a satisfactory activity

C[C@H]1CC[C@H]2C(C)(C)C(=O)CC[C@]23Oc2c(c(O)cc4c2CNC4=O)C[C@]13C [SQ-02-S5-OX2(12)]
CC50 [2]: 25 to 50 µg/mL (≈ 65.2 to 130 µM) | IC50 (A/91/N796 (H3N2); [4]): 1 µg/mL (≈ 2.61 µM) | IC50 (B/91N759; [5]): 0.1 to 1 µg/mL (≈ 0.261 to 2.61 µM) | IC50 (A/Osaka/5/70 (H3N2); [6]): 1 to 10 µg/mL (≈ 2.61 to 26.1 µM) | IC50 (A/Kumamoto/5/67 (H2N2)): 0.01 to 0.1 µg/mL (≈ 0.0261 to 0.261 µM) | IC50 (A/WSN/33 (H1N1); [7]): 1 to 10 ng/mL (≈ 0.00261 to 0.0261 µM)

C[C@H]1CC[C@H]2C(C)(C)[C@@H](O)CC[C@]23Oc2c(c(O)cc4c2CNC4=O)C[C@]13C [SQ-02-S5(2), (6a R, 7S, 9a S, 11 S, 13a S)-2,3,6,6a, 7,8,9,9a, 10, 11, 12, 13-dodecahydro-5, 11-dihydroxy-6a, 7, 10, 10-tetramethyl-3-oxo-1H-benzo[8,8a][1]benzopyrano[2,3-e]isoindole]
CC50 at 3 days [2]: 25 µg/mL (≈ 64.9 µM) | IC50 (A/91/N796 (H3N2); H3N2, MDCK): 1 µg/mL (≈ 2.59 µM) | IC50 (B/91N759; MDCK): 1 µg/mL (≈ 2.59 µM) | IC50 (A/Osaka/5/70 (H3N2); H3N2, MDCK): 0.1 to 1 µg/mL (≈ 0.259 to 2.59 µM) | IC50 (A/Kumamoto/5/67 (H2N2)): 0.1 to 1 µg/mL (≈ 0.259 to 2.59 µM) | IC50 (A/WSN/33 (H1N1); MDCK): 1 to 10 ng/mL (≈ 0.00259 to 0.0259 µM)

C[C@H]1CC[C@H]2C(C)(C)C(=O)CC[C@]23Oc2c(c(O)cc4c2C(=O)NC4=O)C[C@]13C [SQ-02-S5-OX1(11)]
CC50 [2]: 25 to 30 µg/mL (≈ 62.9 to 75.5 µM) | IC50 (A/91/N796 (H3N2); [4]): 1 µg/mL (≈ 2.52 µM) | IC50 (B/91N759; [5]): 0.1 µg/mL (≈ 0.252 µM) | IC50 (A/Osaka/5/70 (H3N2); [6]): 0.1 to 1 µg/mL (≈ 0.252 to 2.52 µM) | IC50 (A/Kumamoto/5/67 (H2N2)): 0.01 to 0.1 µg/mL (≈ 0.0252 to 0.252 µM) | IC50 (A/WSN/33 (H1N1); [7]): 1 to 10 ng/mL (≈ 0.00252 to 0.0252 µM)

C[C@H]1CC[C@H]2C(C)(C)[C@@H](NS(C)(=O)=O)CC[C@]23Oc2c(c(O)cc4c2CNC4=O)C[C@]13C [Compound (47c), (6aR, 7S, 9aS, 11S, 13aS)-2,3,6,6a, 7,8,9,9a, 10, 11, 12, 13-dodecahydro-5-hydroxy-6a, 7, 10, 10-tetramethyl-11-methanesulfonylamino-3-oxo-1H-benzo[8,8a][1]benzopyrano[2,3-e]isoindole]
CC50 (in vitro): > 10 µg/mL | IC50 [1, 8]: 10 ng/mL (≈ 0.0216 µM)

C[C@H]1CC[C@H]2C(C)(C)[C@@H](OC(=O)c3cccnc3)CC[C@]23Oc2c(c(O)cc4c2CNC4=O)C[C@]13C [Compound (35a), (6aR, 7S, 9aS, 11S, 13aS)-2,3,6,6a, 7,8,9,9a, 10, 11, 12, 13-dodecahydro-5-hydroxy-6a, 7, 10, 10-tetramethyl-3-oxo-11-[(3-pyridyl)carbonyloxy]-1H-benzo[8,8a][1]benzopyrano[2,3-e]isoindole]
CC50 (in vitro): 10 µg/mL (≈ 20.4 µM) | IC50 [1, 8]: 1 ng/mL (≈ 0.00204 µM)

C[C@H]1CC[C@H]2C(C)(C)C(=NO)CC[C@]23Oc2c(c(OP(=O)(O)O)cc4c2CNC4=O)C[C@]13C.[Na] [Compound (64), (6aR, 7S, 9aS, 13aS)-2,3,6,6a, 7,8,9,9a, 10, 11, 12, 13-dodecahydro-11-hydroxyimino-5-dihydroxyphosphinyloxy-6a, 7, 10, 10-tetramethyl-3-oxo 1H-benzo[8,8a][1]benzopyrano[2,3-e]isoindole monosodium salt]
CC50 (in vitro): > 10 µg/mL | IC50 ([1]; H1N1|WSN, MDBK, 72 h): 1 ng/mL

C[C@H]1CC[C@H]2C(C)(C)[C@@H](O)[C@@H](O)C[C@]23Oc2c(c(O)cc4c2CNC4=O)C[C@]13C [Compound (50a), (6a R, 7 S, 9a S, 11 R, 12 S, 13a S)-2,3,6,6a, 7,8,9,9a, 10, 11, 12, 13-dodecahydro-5,11,12-trihydroxy-6a, 7, 10, 10-tetramethyl-3-oxo-1H-benzo[8,8a][1]benzopyrano[2,3-e]isoindole]
CC50 (in vitro): > 40 µg/mL | IC50 [1, 8]: 4 ng/mL (≈ 0.00996 µM)

C[C@H]1CC[C@H]2C(C)(C)[C@@H](O)[C@@H](OS(=O)(=O)c3ccccc3)C[C@]23Oc2c(c(O)cc4c2CNC4=O)C[C@]13C [Compound (50e), (6a R, 7 S, 9a S, 11 R, 12 S, 13a S)-2,3,6,6a, 7,8,9,9a, 10, 11,12,13-dodecahydro-5,11-dihydroxy-6a, 7, 10, 10-tetramethyl-12-phenylsulfonyloxy-3-oxo-1H-benzo[8,8a][1]benzopyrano[2,3-e]isoindole]
CC50 (in vitro): > 10 µg/mL | IC50 [1, 8]: 1.6 to 3.2 ng/mL (≈ 0.00295 to 0.00591 µM)

CC(=O)N1Cc2c(cc(O)c3c2O[C@@]24CC[C@H](O)C(C)(C)[C@@H]2CC[C@H](C)[C@@]4(C)C3)C1=O [Compound (28f), (6aR, 7S, 9aS, 115, 13aS)-2-acetyl-2,3,6,6a, 7,8,9,9a, 10, 11, 12, 13-dodecahydro-5,11-dihydroxy-6a, 7, 10, 10-tetramethyl-3-oxo-1H-benzo[8,8a][1]benzopyrano[2,3-e]isoindole]
CC50 at 72 h (in vitro; mdbk cells): > 10 µg/mL | IC50 [1, 8]: 20 ng/mL (≈ 0.0468 µM)

CCCOC1NC(=O)c2cc(O)c3c(c21)O[C@@]12CC[C@H](O)C(C)(C)[C@@H]1CC[C@H](C)[C@@]2(C)C3 (stereo partly drawn) [Compound (30c), (6aR, 7S, 9aS, 11S, 13aS)-2,3,6,6a, 7,8,9,9a, 10, 11, 12, 13-dodecahydro-5, 11-dihydroxy-1-propoxy-6a, 7, 10, 10-tetramethyl-3-oxo-1H-benzo[8,8a][1]benzopyrano[2,3-e]isoindole]
CC50 (in vitro): 20 µg/mL (≈ 45.1 µM) | IC50 [1, 8]: 40 ng/mL (≈ 0.0902 µM)

C[C@H]1CC[C@H]2C(C)(C)[C@@H](O)CC[C@]23Oc2c(c(OP(=O)(O)O)cc4c2CNC4=O)C[C@]13C.[Na] [Compound (59a), (6aR, 7S, 9aS, 11S, 13aS)-2,3,6,6a, 7,8,9,9a, 10, 11, 12, 13-dodecahydro-11-hydroxy-5-dihydroxyphosphinyloxy-6a, 7,10, 10-tetramethyl-3-oxo-1H-benzo[8,8a][1]benzopyrano[2,3-e]isoindole monosodium salt]
CC50 (in vitro): > 10 µg/mL | IC50 ([1]; H1N1|WSN, MDBK, 72 h): 1 ng/mL

C[C@@H]1NC(=O)c2cc(O)c3c(c21)O[C@@]12CC[C@H](O)C(C)(C)[C@@H]1CC[C@H](C)[C@@]2(C)C3 [Compound (67a), (1S, 6aR, 7S, 9aS, 11S, 13aS)-2,3,6,6a, 7,8,9,9a, 10, 11, 12, 13-dodecahydro-5, 11-dihydroxy-1,6a, 7, 10, 10-pentamethyl-3-oxo-1H-benzo[8,8a][1]benzopyrano[2,3-e]isoindole]
CC50 (in vitro): 6.3 to 12.5 µg/mL (≈ 15.8 to 31.3 µM) | IC50 [1, 8]: 16 ng/mL (≈ 0.04 µM)
